The subject of one experiment is VCaP cells. The experiment is described as follows: Cellular growth inhibition assay for VCaP cells (CellTiter-Glo, 72 hours). The experiment is classed as cell-based, human. Summed up: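 Luminescent viability signal after 72 h of compound exposure gave GI50 values by four-parameter nonlinear regression. Compounds were added in 0.5% DMSO to cells plated 24 h earlier at 5000/well in DMEM containing 10% FBS.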
In general terms: In ATP-based viability assays light output follows the ATP content of the culture.

Experiment [1] has as its system T-Rex 293 cell line SC3 cells lacking increased expression of androgen receptor protein. In words: Cellular growth inhibition assay, T-Rex 293 SC3 cells without doxycycline (CellTiter-Glo, 72 hours). The experiment is classed as cell-based. The settings on record: T-Rex 293 cell line SC3 cells not exposed to doxycycline (lacking increased androgen receptor expression). Summed up: (§1)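 Doxycycline (10 ng/mL) was either included or omitted to toggle wild-type androgen receptor expression in SC3 cells, a T-Rex 293 clone, grown in stripped-serum, phenol red-free medium. After 72 hours with compound, viable cells were quantified by CellTiter-Glo 2.0.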

For another experiment, the system named is T47D cells. The experiment is described as follows: Cellular growth inhibition assay for T47D cells (CellTiter-Glo, 72 hours). The format is cell-based, human. The note with it: 72 hours treatment. Summed up:
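Cells are plated at 3000/well and allowed 24 h before treatment. Test compound in medium containing 0.5% DMSO is then added, with DMSO-only wells as negative control, and plates are incubated 72 h at 37 °C. ATP luminescence (CellTiter-Glo 2.0) is then fitted to four parameters to derive GI50.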

Experiment [2] relates to T-Rex 293 cell line SC3 cells having increased expression of androgen receptor protein due to exposure to doxycycline. In words: Cellular growth inhibition assay, T-Rex 293 SC3 cells with doxycycline (CellTiter-Glo, 72 hours). The format is cell-based. The note with it: T-Rex 293 SC3 cells with increased androgen receptor expression due to doxycycline (10 ng/mL). Summed up:
as §1

Read-outs that look alike come from different tables or passages of the source. Some results are limits rather than exact numbers.

The GI50 is the concentration at which growth is held to half of that of the control.

Take `Cc1sc2c(c1C)C(c1ccc(C3CCC(N4CCCN(c5ccc(C(=O)N[C@H]6CC[C@H](Oc7ccc(C#N)c(Cl)c7)CC6)nn5)CC4)CC3)cc1)=N[C@H](Cc1ncco1)c1nnc(C)n1-2` (some centres unmarked) [I-225]: the 50% growth inhibitory concentration (GI50) in the experiment on VCaP cells (Homo sapiens, VCaP, 72 h) was < 500 nM; in experiment [1] (72 h), < 500 nM; with T47D cells (Homo sapiens, T47D, 72 h), < 500 nM; in experiment [2] (72 h) it was < 500 nM.
Turning to `Cc1sc2c(c1C)C(c1ccc(OC3CC4(CCN(c5ccc(C(=O)N[C@H]6CC[C@H](Oc7ccc(C#N)c(Cl)c7)CC6)nn5)CC4)C3)cc1)=N[C@@](C)(C(C)c1ncco1)c1nnc(C)n1-2` (some centres unmarked) [I-226], the GI50 is > 3000 nM in the experiment with VCaP cells (Homo sapiens, VCaP, 72 h); > 3000 nM in experiment [1] (72 h); 500 to 1500 nM in the experiment with T47D cells (Homo sapiens, T47D, 72 h); < 500 nM in experiment [2] (72 h).
Regarding `Cc1sc2c(c1C)C(c1ccc(C#CC3CC4(C3)CN(c3ccc(C(=O)N[C@H]5CC[C@H](Oc6ccc(C#N)c(Cl)c6)CC5)nn3)C4)cc1)=N[C@H](Cc1ncco1)c1nnc(C)n1-2` [I-227], the GI50 is < 500 nM with VCaP cells (Homo sapiens, VCaP, 72 h); > 3000 nM in experiment [1] (72 h); > 3000 nM in the experiment on T47D cells (Homo sapiens, T47D, 72 h); < 500 nM in experiment [2] (72 h).
Regarding `Cc1sc2c(c1C)C(c1ccc(CNC(=O)N3CCC(c4ccc(C(=O)N[C@H]5CC[C@H](Oc6ccc(C#N)c(Cl)c6)CC5)nn4)CC3)cc1)=N[C@@H](Cc1ncco1)c1nnc(C)n1-2` [I-228], the GI50 was < 500 nM in the experiment with VCaP cells (Homo sapiens, VCaP, 72 h); > 3000 nM in experiment [1] (72 h); < 500 nM in the experiment with T47D cells (Homo sapiens, T47D, 72 h); < 500 nM in experiment [2] (72 h).
With `Cc1sc2c(c1C)C(c1ccc(CNC(=O)[C@H]3CCCN(c4ccc(C(=O)N[C@H]5CC[C@H](Oc6ccc(C#N)c(Cl)c6)CC5)nn4)C3)cc1)=N[C@@H](Cc1ncco1)c1nnc(C)n1-2` [I-229], the GI50 is 500 to 1500 nM in the experiment with VCaP cells (Homo sapiens, VCaP, 72 h); 500 to 1500 nM in experiment [1] (72 h); 1500 to 3000 nM with T47D cells (Homo sapiens, T47D, 72 h); < 500 nM in experiment [2] (72 h).
In the case of `Cc1sc2c(c1C)C(c1ccc(CNC(=O)[C@@H]3CCCN(c4ccc(C(=O)N[C@H]5CC[C@H](Oc6ccc(C#N)c(Cl)c6)CC5)nn4)C3)cc1)=N[C@@H](Cc1ncco1)c1nnc(C)n1-2` [I-230], the 50% growth inhibitory concentration (GI50) is 500 to 1500 nM with VCaP cells (Homo sapiens, VCaP, 72 h); 500 to 1500 nM in experiment [1] (72 h); 1500 to 3000 nM in the experiment with T47D cells (Homo sapiens, T47D, 72 h); < 500 nM in experiment [2] (72 h).
`Cc1sc2c(c1C)C(c1ccc(N3CCC(CNC(=O)c4ccc(C(=O)N[C@H]5CC[C@H](Oc6ccc(C#N)c(Cl)c6)CC5)nn4)CC3)cc1)=N[C@@H](Cc1ncco1)c1nnc(C)n1-2` [I-231]: the GI50 in the experiment on VCaP cells is > 3000 nM; in experiment [1], > 3000 nM; in the experiment on T47D cells (Homo sapiens, T47D, 72 h) it was 500 to 1500 nM; in experiment [2], > 3000 nM.
With `Cc1sc2c(c1C)C(c1ccc(N3CCC(CNC(=O)c4ccc(C(=O)N[C@H]5CC[C@H](Oc6ccc(C#N)c(Cl)c6)CC5)nn4)CC3)cc1)=N[C@@H](Cc1ncco1)c1nnc(C)n1-2` [I-232], the GI50 with VCaP cells was < 500 nM; in experiment [1], 500 to 1500 nM; in the experiment on T47D cells, < 500 nM; in experiment [2], < 500 nM.
With `Cc1sc2c(c1C)C(c1ccc(CNC(=O)CNC(=O)c3ccc(C(=O)N[C@H]4CC[C@H](Oc5ccc(C#N)c(Cl)c5)CC4)nn3)cc1)=N[C@@H](Cc1ncco1)c1nnc(C)n1-2` [I-233], the GI50 was < 500 nM in the experiment on VCaP cells (Homo sapiens, VCaP, 72 h); > 3000 nM in experiment [1] (72 h); 500 to 1500 nM in the experiment on T47D cells (Homo sapiens, T47D, 72 h); < 500 nM in experiment [2] (72 h).
Regarding `Cc1sc2c(c1C)C(c1ccc(C#C[C@H]3C[C@]4(CCCN(c5ccc(C(=O)N[C@H]6CC[C@H](Oc7ccc(C#N)c(Cl)c7)CC6)nn5)C4)C3)cc1)=N[C@@H](Cc1ncco1)c1nnc(C)n1-2` [I-234], the 50% growth inhibitory concentration (GI50) in the experiment with VCaP cells (Homo sapiens, VCaP, 72 h) was < 500 nM; in experiment [1] (72 h), < 500 nM; in the experiment with T47D cells (Homo sapiens, T47D, 72 h) it was < 500 nM; in experiment [2] (72 h), < 500 nM.
Take `Cc1sc2c(c1C)C(c1ccc(C#C[C@H]3C[C@@]4(CCCN(c5ccc(C(=O)N[C@H]6CC[C@H](Oc7ccc(C#N)c(Cl)c7)CC6)nn5)C4)C3)cc1)=N[C@@H](Cc1ncco1)c1nnc(C)n1-2` [I-235]: the concentration for 50% growth inhibition (GI50) with VCaP cells (Homo sapiens, VCaP, 72 h) is < 500 nM; in experiment [1] (72 h), < 500 nM; in the experiment with T47D cells (Homo sapiens, T47D, 72 h), < 500 nM; in experiment [2] (72 h), < 500 nM.
Take `Cc1sc2c(c1C)C(c1ccc([C@H]3CC[C@H](N4CCCN(c5ccc(C(=O)N[C@H]6CC[C@H](Oc7ccc(C#N)c(Cl)c7)CC6)nn5)CC4)CC3)cc1)=N[C@@H](Cc1ncco1)c1nnc(C)n1-2` [I-236]: the GI50 was > 3000 nM in the experiment with VCaP cells (Homo sapiens, VCaP, 72 h); > 3000 nM in experiment [1] (72 h); > 3000 nM in the experiment on T47D cells (Homo sapiens, T47D, 72 h); < 500 nM in experiment [2] (72 h).
On to `Cc1sc2c(c1C)C(c1ccc(OC3CC4(CCN(c5ccc(C(=O)N[C@H]6CC[C@H](Oc7ccc(C#N)c(Cl)c7)CC6)nn5)CC4)C3)cc1)=N[C@](C)(C(C)c1ncco1)c1nnc(C)n1-2` (some centres unmarked) [I-237], for which the 50% growth inhibitory concentration (GI50) in the experiment with VCaP cells (Homo sapiens, VCaP, 72 h) was > 3000 nM; in experiment [1] (72 h) it was > 3000 nM; with T47D cells (Homo sapiens, T47D, 72 h), < 500 nM; in experiment [2] (72 h) it was < 500 nM.
Consider `Cc1sc2c(c1C)C(c1ccc(C(=O)N3CCN(C(=O)c4ccc(C(=O)N[C@H]5CC[C@H](Oc6ccc(C#N)c(Cl)c6)CC5)nn4)CC3)cc1)=N[C@@H](Cc1ncco1)c1nnc(C)n1-2` [I-238], for which the GI50 with VCaP cells (Homo sapiens, VCaP, 72 h) was > 3000 nM; in experiment [1] (72 h) it was > 3000 nM; with T47D cells (Homo sapiens, T47D, 72 h), > 3000 nM; in experiment [2] (72 h) it was > 3000 nM.
`Cc1sc2c(c1C)C(c1ccc(C(=O)N3CCN(C(=O)c4ccc(C(=O)N[C@H]5CC[C@H](Oc6ccc(C#N)c(Cl)c6)CC5)nn4)CC3)cc1)=N[C@H](Cc1ncco1)c1nnc(C)n1-2` [I-239]: the GI50 with VCaP cells (Homo sapiens, VCaP, 72 h) was 1500 to 3000 nM; in experiment [1] (72 h), > 3000 nM; in the experiment on T47D cells (Homo sapiens, T47D, 72 h) it was > 3000 nM; in experiment [2] (72 h) it was < 500 nM.
Turning to `Cc1sc2c(c1C)C(c1ccc(C(=O)N3CCC(Cc4ccc(C(=O)N[C@H]5CC[C@H](Oc6ccc(C#N)c(Cl)c6)CC5)nn4)CC3)cc1)=N[C@@H](Cc1ncco1)c1nnc(C)n1-2` [I-240], the GI50 is > 3000 nM with VCaP cells (Homo sapiens, VCaP, 72 h); > 3000 nM in experiment [1] (72 h); 500 to 1500 nM in the experiment on T47D cells (Homo sapiens, T47D, 72 h); < 500 nM in experiment [2] (72 h).
For the molecule `Cc1sc2c(c1C)C(c1ccc(C(=O)N3CCC(Cc4ccc(C(=O)N[C@H]5CC[C@H](Oc6ccc(C#N)c(Cl)c6)CC5)nn4)CC3)cc1)=N[C@H](Cc1ncco1)c1nnc(C)n1-2` [I-241], the GI50 was 500 to 1500 nM in the experiment on VCaP cells (Homo sapiens, VCaP, 72 h); 500 to 1500 nM in experiment [1] (72 h); 500 to 1500 nM in the experiment on T47D cells (Homo sapiens, T47D, 72 h); < 500 nM in experiment [2] (72 h).
For `Cc1sc2c(c1C)C(c1ccc(CN3CCN(C(=O)c4ccc(C(=O)N[C@H]5CC[C@H](Oc6ccc(C#N)c(Cl)c6)CC5)nn4)CC3)cc1)=N[C@@H](Cc1ncco1)c1nnc(C)n1-2` [I-242], the 50% growth inhibitory concentration (GI50) in the experiment on VCaP cells (Homo sapiens, VCaP, 72 h) was < 500 nM; in experiment [1] (72 h) it was < 500 nM; in the experiment with T47D cells (Homo sapiens, T47D, 72 h), < 500 nM; in experiment [2] (72 h), < 500 nM.
Regarding `Cc1sc2c(c1C)C(c1ccc(CNC(=O)CN(C)c3ccc(C(=O)N[C@H]4CC[C@H](Oc5ccc(C#N)c(Cl)c5)CC4)nn3)cc1)=N[C@@H](Cc1ncco1)c1nnc(C)n1-2` [I-243], the GI50 in the experiment with VCaP cells (Homo sapiens, VCaP, 72 h) was 500 to 1500 nM; in experiment [1] (72 h) it was 500 to 1500 nM; with T47D cells (Homo sapiens, T47D, 72 h) it was 500 to 1500 nM; in experiment [2] (72 h) it was < 500 nM.
In the case of `Cc1sc2c(c1C)C(c1ccc([C@H]3CC[C@@H](N4CCCN(c5ccc(C(=O)N[C@H]6CC[C@H](Oc7ccc(C#N)c(Cl)c7)CC6)nn5)CC4)CC3)cc1)=N[C@@H](Cc1ncco1)c1nnc(C)n1-2` [I-244], the GI50 is > 3000 nM in the experiment on VCaP cells (Homo sapiens, VCaP, 72 h); > 3000 nM in experiment [1] (72 h); > 3000 nM in the experiment with T47D cells (Homo sapiens, T47D, 72 h); < 500 nM in experiment [2] (72 h).
